One assay has as its system HCT116 cell. More on the design: method as in PMID 19139018. As to conditions: cited from earlier work.
The next assay relates to HCT116 cell lines. The arrangement: method as in PMID 21617858. As to conditions: read-out: IC50, growth of HCT116 cell lines; cited from earlier work.
In a further assay the test system is HCT116 cells. The assay can be described thus: High-throughput resazurin (Alamar blue) cytotoxicity / antiproliferative assay on tumor HCT116 cells. Type of assay: cell-based, human. As to conditions: for effect on proliferation of HCT116 cells: dose-response curves (Figure S4). Here is the method:
(§1) A colon adenocarcinoma (HCT116) and normal human lung fibroblast (MRC-5) cell lines were purchased from the American Type Culture Collection (ATCC, Manassas, VA). HCT116 cells were maintained in McCoy's 5a Modified Medium supplemented with 10% FBS, 100 units/ml penicillin, and 100 µg/ml streptomycin at 37°C in a humidified 5% CO2 incubator. Subculturing was done using 1∶5 ratio twice a week. MRC-5 cells were maintained in DMEM supplemented with 10% FBS, 100 units/ml penicillin, and 100 µg/ml streptomycin at 37°C in a humidified 5% CO2 incubator. Subculturing was done using 1∶3 ratio twice a week. A cell bank was established for the cell lines used during the differential toxicity screening campaign.
The high-throughput in vitro assay for measuring toxicity and antiproliferative effects of small molecules was implemented as described earlier. Cell lines were grown in culture flasks to 90% confluences, then harvested in counted cell density and seeded into 384-well microtiter plates. Test compounds were then added in various concentrations (in 2% DMSO final concentration) and incubated with the cells in CO2 incubators at 37°C for 48 h. […] During this period, FBS content of the medium was decreased to avoid the masking effect of FBS on toxicity. Detection of viability is based on the reduction of resazurin (Alamar blue) by living cells, resulting in an increased fluorescent signal. For the transformation of the assay into a high-throughput format, a Beckman Biomek liquid handling system and a Wallac Victor plate reader were used. Protocols needed for handling the 384-well plates were established for both single-concentration screening and dose-response curve determination. A plate map was used for the validation of the assay on 384-well plates, which is suitable for the determination of dose-response curves for 16 compounds at the same time using 6 concentrations in triplicate. This experiment was run in parallel on 5 plates and repeated three times on different days. From the dose-response curves, IC50 values were determined and analyzed. […] Based on the established assay protocol, single-point screenings were done at 50 µM compound concentration in duplicate. Likewise, IC50 values were obtained from the toxicity dose-response curves from six compound concentrations in duplicate and calculated with Microcal Origin 5.0.
In general terms: The colour change of resazurin is a common sign of viable cells or microbes.

Assay [1] addresses amine oxidase flavin-containing B enzyme (MAO-B). More on the design: method as in PMID 19933261. As to conditions: reported in PubChem; cited from earlier work.
The test system of a further assay is colon HCT116 cell lines. The arrangement: method as in PMID 19933261. As to conditions: cited from earlier work.
The subject of a further assay is MRC-5 cells. The assay can be described thus: High-throughput resazurin (Alamar blue) cytotoxicity / antiproliferative assay on normal MRC-5 cells. The assay is classed as cell-based, human. As to conditions: dose-response curves (Figure S4). The method, then:
as §1, with “A cell bank was established for the cell lines used during the differential toxicity screening campaign.” left out
The high-throughput in vitro assay for measuring toxicity and antiproliferative effects of small molecules was implemented as described earlier. Cell lines were grown in culture flasks to 90% confluences, then harvested in counted cell density and seeded into 384-well microtiter plates. […] For the transformation of the assay into a high-throughput format, a Beckman Biomek liquid handling system and a Wallac Victor plate reader were used. […] From the dose-response curves, IC50 values were determined and analyzed. To test the reproducibility and robustness of the assay for high-throughput screening, Z′ factors (∼0.72) and S/B ratios (∼10) were determined and the respective plate-to-plate and day-to-day coefficients of variation found to be 5.0%, 2.7%, 1.7% and 5.6%. […]

Broadly, the IC50 is the concentration at which inhibition is half-maximal. Broadly, the GI50 is the concentration at which growth is held to half of that of the control.

The structures appear in SMILES notation.

`O=C(c1ccc(OCCN2CCCCC2)cc1)c1c(-c2ccc(O)cc2)sc2cc(O)ccc12` [raloxifene]: the “inhibition of HCT116 cell growth” value in the assay on HCT116 cell was “inhibit HCT116 cell growth in a dose-dependent manner”.
Regarding `CN(C)C/C=C/C(=O)Nc1cc2c(Nc3ccc(F)c(Cl)c3)ncnc2cc1O[C@H]1CCOC1` [afatinib], the IC50 in the assay on HCT116 cell lines is 1620 nM.
`O=C1c2ccccc2-c2nc(-c3cccc([N+](=O)[O-])c3)nnc21` [NSC680350]: the “pGI50 obtained in this work on HCT116 cell lines” value in the assay on HCT116 cells came to 5.19. In addition, the GI50 in the assay on HCT116 cells (dose-response curve, Figure S5, read-out: GI50 on HCT116 cell lines) amounted to 6.4 µM. Moreover, the IC50 in assay [1] is 80 nM. Besides, the “pGI50 for colon HCT116 cell lines reported in PubChem” value in the assay with colon HCT116 cell lines is given as 4.64.
Turning to `O=C(CCCCCCC(=O)Nc1ccccc1)NO` [SAHA, suberoylanilide hydroxamic acid], the “effect on proliferation of HCT116 cells” value in the assay with HCT116 cells is “inhibited the proliferation of HCT116 cells in a dose dependent manner”. In addition, the “effect on MRC-5 cells” value in the assay on MRC-5 cells is on record as “little or no effect”.
In the assay on HCT116 cells (48 h incubation, dose-response, six concentrations in duplicate), `C=CCNC1=C2C[C@@H](C)C[C@H](OC)[C@H](O)[C@@H](C)/C=C(\C)[C@H](OC(N)=O)[C@@H](OC)/C=C\C=C(/C)C(=O)NC(=CC1=O)C2=O` [17AAG, 17-(allylamino)-17-demethoxygeldanamycin] returned a concentration for half-maximal inhibition (IC50) of 200 nM. The “fold selectivity relative to the antiproliferative effect on MRC-5 cells” value in the assay with HCT116 cells (IC50(MRC-5)/IC50(HCT116)) stood at 93 fold. The “effect on proliferation of HCT116 cells” value in the assay on HCT116 cells was “inhibited the proliferation of HCT116 cells in a dose dependent manner”. Further, the “effect on MRC-5 cells” value in the assay on MRC-5 cells was “little or no effect”.

Values taken from PMC3338416, “A Chemocentric Approach to the Identification of Cancer Targets” (PLoS ONE, 2012).
